In patent US20100075965A1, “PI3 KINASE INHIBITORS AND METHODS OF THEIR USE” (Novartis AG, priority 2006, published 2010):
pEC50, pIC50: −log10 of the molar value. Where two headings read alike, the source gives them in different places.

How the values were obtained:
[1] = test system: A2780 cells; assay: Viability assay in A2780 (Cell Titer Glo); assay type: cell-based, human; conditions: Homo sapiens, A2780 cells, read-out: A2780 Cell prolif. EC50
How it was run: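 EC50 values come from Cell Titer Glo luminescence after 72 hrs of compound exposure at 37° C, run in duplicate. A2780 cells were plated at 1,000 per well in DMEM with 10% FBS and dosed with 3-fold serial dilutions.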

[2] = target: PI3 K Alpha (Homo sapiens, UniProt P42336); assay: PI3 kinase phosphorylation assays (homogenous solution phase, one step solid phase, ATP depletion/KinaseGlo); assay type: biochemical
PI3 K Alpha, sequence (P42336 whole entry): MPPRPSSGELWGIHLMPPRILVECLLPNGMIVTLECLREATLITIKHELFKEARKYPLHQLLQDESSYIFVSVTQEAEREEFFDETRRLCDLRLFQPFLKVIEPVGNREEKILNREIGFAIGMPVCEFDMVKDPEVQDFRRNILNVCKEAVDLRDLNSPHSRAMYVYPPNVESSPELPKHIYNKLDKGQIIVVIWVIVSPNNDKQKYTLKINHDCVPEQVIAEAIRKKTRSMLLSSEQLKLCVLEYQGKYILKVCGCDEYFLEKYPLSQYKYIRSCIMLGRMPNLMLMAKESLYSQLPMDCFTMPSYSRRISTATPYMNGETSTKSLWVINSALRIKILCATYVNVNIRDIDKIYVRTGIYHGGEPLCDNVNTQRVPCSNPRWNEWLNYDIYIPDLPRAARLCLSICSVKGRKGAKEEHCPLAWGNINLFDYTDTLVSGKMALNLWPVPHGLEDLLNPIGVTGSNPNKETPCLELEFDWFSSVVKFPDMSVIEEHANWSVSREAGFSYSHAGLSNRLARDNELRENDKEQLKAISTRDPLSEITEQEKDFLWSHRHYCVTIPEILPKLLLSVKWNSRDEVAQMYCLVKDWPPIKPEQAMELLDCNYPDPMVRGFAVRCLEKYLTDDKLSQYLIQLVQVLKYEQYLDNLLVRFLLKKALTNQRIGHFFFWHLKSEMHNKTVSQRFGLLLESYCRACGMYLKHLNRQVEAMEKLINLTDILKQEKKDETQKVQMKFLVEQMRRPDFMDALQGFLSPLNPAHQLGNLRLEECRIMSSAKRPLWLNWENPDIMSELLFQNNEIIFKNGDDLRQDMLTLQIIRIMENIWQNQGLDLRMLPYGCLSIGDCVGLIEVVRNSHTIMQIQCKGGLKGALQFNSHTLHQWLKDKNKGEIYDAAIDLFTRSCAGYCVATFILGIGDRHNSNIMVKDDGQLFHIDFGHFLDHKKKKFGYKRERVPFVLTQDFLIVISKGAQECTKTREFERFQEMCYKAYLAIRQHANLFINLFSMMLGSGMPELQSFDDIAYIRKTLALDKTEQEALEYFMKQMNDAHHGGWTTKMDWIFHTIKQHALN
PI3 K Alpha, sequence (P27986 whole entry partner): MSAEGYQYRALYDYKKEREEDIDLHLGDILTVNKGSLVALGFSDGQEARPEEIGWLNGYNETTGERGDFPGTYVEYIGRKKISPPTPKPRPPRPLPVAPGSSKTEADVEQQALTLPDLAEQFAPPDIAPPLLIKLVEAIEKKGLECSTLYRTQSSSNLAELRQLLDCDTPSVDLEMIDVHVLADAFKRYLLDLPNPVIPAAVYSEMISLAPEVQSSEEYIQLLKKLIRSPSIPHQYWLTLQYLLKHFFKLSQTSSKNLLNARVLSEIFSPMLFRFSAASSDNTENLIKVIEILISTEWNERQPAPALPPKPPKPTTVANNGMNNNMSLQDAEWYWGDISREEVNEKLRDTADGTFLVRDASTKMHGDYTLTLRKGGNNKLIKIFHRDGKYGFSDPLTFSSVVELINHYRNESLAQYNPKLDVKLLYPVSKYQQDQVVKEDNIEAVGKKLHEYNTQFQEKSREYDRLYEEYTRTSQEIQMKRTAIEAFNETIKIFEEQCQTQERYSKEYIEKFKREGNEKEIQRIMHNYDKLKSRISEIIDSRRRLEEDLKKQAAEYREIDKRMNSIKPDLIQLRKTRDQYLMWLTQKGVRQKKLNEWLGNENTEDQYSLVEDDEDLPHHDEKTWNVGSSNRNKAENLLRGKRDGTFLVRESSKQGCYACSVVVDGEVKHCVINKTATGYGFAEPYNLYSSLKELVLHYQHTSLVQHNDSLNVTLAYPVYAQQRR

[3] = ATP depletion assay, read-out: PI3 K Alpha IC50

## CC(=O)Nc1cn2cc(-c3cnc(N)c(-c4cccc(F)c4)c3)ccc2n1 [Example 134, N-(6-(6-amino-5-(3-fluorophenyl)pyridin-3-yl)imidazo[1,2-a]pyridin-2-yl)acetamide]
[1]
  pEC50: > 5.00
[2]; read-out: PI3K Alpha IC50
  pIC50: > 6.00

## COCCOc1nc(-c2ccc3nc(NC(=O)C4CCN4)cn3c2)cnc1N (stereo not drawn) [Example 153, N-(6-(5-amino-6-(2-methoxyethoxy)pyrazin-2-yl)imidazo[1,2-a]pyridin-2-yl)azetidine-2-carboxamide]
[1]
  pEC50: > 4.60
[2]; read-out: PI3K Alpha IC50
  pIC50: > 6.00

## CC(=O)Nc1cn2cc(-c3cnc(N)c(C(=O)N4CCCC4)c3)ccc2n1 [Example 155, N-(6-(6-amino-5-(pyrrolidine-1-carbonyl)pyridin-3-yl)imidazo[1,2-a]pyridin-2-yl)acetamide]
[1]
  pEC50: > 4.60
[2]; read-out: PI3K Alpha IC50
  pIC50: > 6.00

## CC(C)C(=O)Nc1cn2cc(-c3cnc(N)c(OCC(F)(F)F)n3)ccc2n1 [Example 230, N-(6-(5-amino-6-(2,2,2-trifluoroethoxy)pyrazin-2-yl)imidazo[1,2-a]pyridin-2-yl)isobutyramide]
[1]
  pEC50: > 5.00
[2]; read-out: PI3K Alpha IC50
  pIC50: > 6.00

## CN(C)C1CCN(C(=O)Nc2cn3cc(-c4cnc(N)c(C(F)(F)F)c4)ccc3n2)C1 (stereo not drawn) [Example 248, N-(6-(6-amino-5-(trifluoromethyl)pyridin-3-yl)imidazo[1,2-a]pyridin-2-yl)-3-(dimethylamino) pyrrolidine-1-carboxamide]
[1]
  pEC50: > 5.00
[2]; read-out: PI3K Alpha IC50
  pIC50: > 6.00

## CC(=O)Nc1nc2cc(F)c(-c3cnc(N)c(C(F)(F)F)c3)cc2s1 [Example 2-29, N-[6-(6-Amino-5-trifluoromethyl-pyridin-3-yl)-5-fluoro-benzothiazol-2-yl]-acetamide]
[1]; 72 hrs
  pEC50: > 4.60
[2]; [3]
  pIC50: > 6.00

## COC[C@@H]1CCCN1C(=O)Nc1cn2cc(-c3cnc(N)c(C(F)(F)F)c3)ccc2n1 [Example 165, (S)-N-(6-(6-amino-5-(trifluoromethyl)pyridin-3-yl)imidazo[1,2-a]pyridin-2-yl)-2-(methoxymethyl) pyrrolidine-1-carboxamide]
[1]
  pEC50: > 4.60
[2]; read-out: PI3K Alpha IC50
  pIC50: > 6.00

## Nc1ncc(-c2ccc3nc(NC(=O)CN4CCCCC4)cn3c2)cc1C(F)(F)F [Example 198, N-(6-(6-amino-5-(trifluoromethyl)pyridin-3-yl)imidazo[1,2-a]pyridin-2-yl)-2-(piperidin-1-yl)acetamide]
[1]
  pEC50: > 5.00
[2]; read-out: PI3K Alpha IC50
  pIC50: > 6.00

## CC(=O)Nc1cn2cc(-c3cnc(N)c(C(=O)N4CCNCC4)c3)ccc2n1 [Example 160, N-(6-(6-amino-5-(piperazine-1-carbonyl)pyridin-3-yl)imidazo[1,2-a]pyridin-2-yl)acetamide]
[1]
  pEC50: > 4.60
[2]; read-out: PI3K Alpha IC50
  pIC50: > 6.00

## CC(=O)Nc1cn2cc(-c3cnc(N)c(Br)n3)ccc2n1 [Example 164, N-(6-(5-amino-6-bromopyrazin-2-yl)imidazo[1,2-a]pyridin-2-yl)acetamide]
[1]
  pEC50: > 4.60
[2]; read-out: PI3K Alpha IC50
  pIC50: > 6.00

## Nc1ncc(-c2ccc3nc(NC(=O)C4CCN4)cn3n2)cc1C(F)(F)F (stereo not drawn) [Example 189]
[1]
  pEC50: > 5.00
[2]; read-out: PI3K Alpha IC50
  pIC50: > 6.00

## Nc1ncc(-c2ccc3nc(NC(=O)[C@@H]4CCCN4)cn3c2)cc1C(F)(F)F [Example 38, (S)-N-(6-(6-amino-5-(trifluoromethyl)pyridin-3-yl)imidazo[1,2-a]pyridin-2-yl)pyrrolidine-2-carboxamide]
[1]
  pEC50: > 5.00
[2]; read-out: PI3K Alpha IC50
  pIC50: > 4.60

## CC(=O)Nc1cn2cc(-c3cnc(N)c(C)n3)ccc2n1 [Example 226, N-(6-(5-amino-6-methylpyrazin-2-yl)imidazo[1,2-a]pyridin-2-yl)acetamide]
[1]
  pEC50: > 5.00
[2]; read-out: PI3K Alpha IC50
  pIC50: > 6.00

## COC(=O)C1CCN(C(=O)Nc2cn3cc(-c4cnc(N)c(C(F)(F)F)c4)ccc3n2)C1 (stereo not drawn) [Example 257, methyl 1-(6-(6-amino-5-(trifluoromethyl)pyridin-3-yl)imidazo[1,2-a]pyridin-2-ylcarbamoyl) pyrrolidine-3-carboxylate]
[1]
  pEC50: > 5.00
[2]; read-out: PI3K Alpha IC50
  pIC50: > 6.00

## Nc1ncc(-c2ccc3nc(NC(=O)c4cccc(F)c4)cn3c2)cc1C(F)(F)F [Example 192, N-(6-(6-amino-5-(trifluoromethyl)pyridin-3-yl)imidazo[1,2-a]pyridin-2-yl)-3-fluorobenzamide]
[1]
  pEC50: > 5.00
[2]; read-out: PI3K Alpha IC50
  pIC50: > 6.00

## COc1c(-c2cnc(N)c(C(F)(F)F)c2)ccc2nc(NC(=O)C(F)(F)F)cn12 [Example 37, N-(6-(6-amino-5-(trifluoromethyl)pyridin-3-yl)-5-methoxy-imidazo[1,2-a]pyridin-2-yl)-2,2,2-trifluoroacetamide]
[1]
  pEC50: > 4.60
[2]; read-out: PI3K Alpha IC50
  pIC50: > 4.60

## CNC(=O)[C@@H]1CCN1C(=O)Nc1cn2cc(-c3cnc(N)c(C(F)(F)F)c3)ccc2n1 [Example 36, (S)-N1-(6-(6-amino-5-(trifluoromethyl)pyridin-3-yl)imidazo[1,2-a]pyridin-2-yl)-N2-methylazetidine-1,2-dicarboxamide]
[1]
  pEC50: > 4.60
[2]; read-out: PI3K Alpha IC50
  pIC50: > 4.60

## CC(C)(C)OC(=O)N1CCC[C@@H]1C(=O)Nc1cn2nc(-c3cnc(N)c(C(F)(F)F)c3)ccc2n1 [Example 179, (R)-tert-butyl amino-5-(trifluoromethyl) pyridin-3-yl)imidazo[1,2-b]pyridazin-2-ylcarbamoyl) pyrrolidine-1-carboxylate]
[1]
  pEC50: > 4.60
[2]; read-out: PI3K Alpha IC50
  pIC50: > 6.00

## CC(=O)Nc1cn2nc(-c3cnc(N)c(C(=O)NCCNS(C)(=O)=O)c3)ccc2n1 [Example 141, 5-(2-acetamido-imidazo[1,2-b]pyridazin-6-yl)-2-amino-N-(2-(methylsulfon amido)ethyl) nicotinamide]
[1]
  pEC50: > 4.60
[2]; read-out: PI3K Alpha IC50
  pIC50: > 6.00

## N#Cc1cccc(C(=O)Nc2cn3cc(-c4cnc(N)c(C(F)(F)F)c4)ccc3n2)c1 [Example 245, N-(6-(6-amino-5-(trifluoromethyl)pyridin-3-yl)imidazo[1,2-a]pyridin-2-yl)-3-cyanobenzamide]
[1]
  pEC50: > 5.00
[2]; read-out: PI3K Alpha IC50
  pIC50: > 6.00

## CC(C)(C)OC(=O)N1CC(C(=O)Nc2cn3nc(-c4cnc(N)c(C(F)(F)F)c4)ccc3n2)C1 [Example 197, tert-butyl 3-(6-(6-amino-5-(trifluoromethyl)pyridin-3-yl)imidazo[1,2-b]pyridazin-2-ylcarbamoyl) azetidine-1-carboxylate]
[1]
  pEC50: > 5.00
[2]; read-out: PI3K Alpha IC50
  pIC50: > 6.00

## Nc1ncc(-c2ccc3nc(NC(=O)[C@H]4CCCN4)cn3n2)cc1C(F)(F)F [Example 178, (R)-N-(6-(6-amino-5-(trifluoromethyl)pyridin-3-yl)imidazo[1,2-b]pyridazin-2-yl)pyrrolidine-2-carboxamide]
[1]
  pEC50: > 4.60
[2]; read-out: PI3K Alpha IC50
  pIC50: > 6.00

## CC(C)(C)OC(=O)N1CCCCC1CCC(=O)Nc1cn2nc(-c3cnc(N)c(C(F)(F)F)c3)ccc2n1 (stereo not drawn) [Example 250, tert-butyl 2-(3-(6-(6-amino-5-(trifluoromethyl)pyridin-3-yl)imidazo[1,2-b]pyridazin-2-ylamino)-3-oxopropyl) piperidine-1-carboxylate]
[1]
  pEC50: > 5.00
[2]; read-out: PI3K Alpha IC50
  pIC50: > 6.00

## CC(C)(C)OC(=O)NCCC(=O)Nc1cn2nc(-c3cnc(N)c(C(F)(F)F)c3)ccc2n1 [Example 231, tert-butyl 3-(6-(6-amino-5-(trifluoromethyl)pyridin-3-yl)imidazo[1,2-b]pyridazin-2-ylamino)-3-oxopropyl-carbamate]
[1]
  pEC50: > 5.00
[2]; read-out: PI3K Alpha IC50
  pIC50: > 6.00

## CC(=O)Nc1nc2cc(C)c(-c3cnc(N)c(C(F)(F)F)c3)cc2s1 [Example 2-28, N-[6-(6-Amino-5-trifluoromethyl-pyridin-3-yl)-5-methyl-benzothiazol-2-yl]-acetamide]
[1]; 72 hrs
  pEC50: > 4.60
[2]; [3]
  pIC50: > 6.00

## Nc1ncc(-c2ccc3nc(NC(=O)c4ccc(F)nc4)cn3c2)cc1C(F)(F)F [Example 143, N-(6-(6-amino-5-(trifluoromethyl)pyridin-3-yl)imidazo[1,2-a]pyridin-2-yl)-6-fluoronicotinamide]
[1]
  pEC50: > 4.60
[2]; read-out: PI3K Alpha IC50
  pIC50: > 6.00

## CC(=O)Nc1cn2cc(-c3cnc(N)c(Oc4ccc(N5CCN(C(C)=O)CC5)cc4)n3)ccc2n1 [Example 222, N-(6-(6-(4-(4-acetylpiperazin-1-yl)phenoxy)-5-aminopyrazin-2-yl)imidazo[1,2-a]pyridin-2-yl)acetamide]
[1]
  pEC50: > 5.00
[2]; read-out: PI3K Alpha IC50
  pIC50: > 6.00

## CC(=O)NC1CCN(C(=O)Nc2cn3cc(-c4cnc(N)c(C(F)(F)F)c4)ccc3n2)C1 (stereo not drawn) [Example 146, 3-acetamido-N-(6-(6-amino-5-(trifluoromethyl)pyridin-3-yl)imidazo[1,2-a]pyridin-2-yl)pyrrolidine-1-carboxamide]
[1]
  pEC50: > 4.60
[2]; read-out: PI3K Alpha IC50
  pIC50: > 6.00

## CCN/N=C/c1cc(-c2ccc3nc(NC(C)=O)cn3c2)cnc1N [Example 207, (E)-N-(6-(6-amino-5-((2-ethylhydrazono)methyl)pyridin-3-yl)imidazo[1,2-a]pyridin-2-yl)acetamide]
[1]
  pEC50: > 5.00
[2]; read-out: PI3K Alpha IC50
  pIC50: > 6.00

## NCCCC(=O)Nc1cn2nc(-c3cnc(N)c(C(F)(F)F)c3)ccc2n1 [Example 137, 4-amino-N-(6-(6-amino-5-(trifluoromethyl)pyridin-3-yl)imidazo[1,2-b]pyridazin-2-yl)butanamide]
[1]
  pEC50: > 4.60
[2]; read-out: PI3K Alpha IC50
  pIC50: > 6.00

## CC(=O)Nc1cn2cc(-c3cnc(N)c(CN4CCCC4)c3)ccc2n1 [Example 173, N-(6-(6-amino-5-(pyrrolidin-1-ylmethyl)pyridin-3-yl)imidazo[1,2-a]pyridin-2-yl)acetamide]
[1]
  pEC50: > 4.60
[2]; read-out: PI3K Alpha IC50
  pIC50: > 6.00

## Nc1ncc(-c2ccc3nc(NC(=O)CCCC(=O)O)cn3n2)cc1C(F)(F)F [Example 138, 5-(6-(6-amino-5-(trifluoromethyl)pyridin-3-yl)imidazo[1,2-b]pyridazin-2-ylamino)-5-oxopentanoic acid]
[1]
  pEC50: > 4.60
[2]; read-out: PI3K Alpha IC50
  pIC50: > 6.00

## CC(=O)Nc1cn2cc(-c3cnc(N)c(OC4CCN(C)CC4)n3)ccc2n1 [Example 40, N-(6-(5-amino-6-(1-methylpiperidin-4-yloxy)pyrazin-2-yl)imidazo[1,2-a]pyridin-2-yl)acetamide]
[1]
  pEC50: > 4.60
[2]; read-out: PI3K Alpha IC50
  pIC50: > 5.00
